Read-outs that look alike come from different tables or passages of the source. *1 amine or outer side, *2 acyl side, *3 side chain or, on linkers, in order; H or OH if unused. Where a SMILES comes first, the peptide text is derived from it. [ ]: non-standard residue; d: D form. The star is where a group is joined. X1 = CC1(C)OC2=C(CC1O*)C(=O)C(=O)c1ccccc12; Morpholide = C1CN(*)CCO1; CO = O=C([*:1])[*:2]; βAla = NCCC(=O)O
How the values were obtained:
DU145 = assay: MTT assay, DU145 prostate tumor cells; assay type: cell-based, human; conditions: Table 1; for ID50 (μM) of different prostate cells DU145: MTT assay, treatment time not stated
Description: (§1) Cell Culture: The human lung adenocarcinoma cell line, A549, and human prostatic cancer cell line, DUPRO, were a gift from Dr. M. Eileen Dolan, University of Chicago, Department of Medicine. A549 was grown in Ham's F-12K medium (Fisher Scientific, Itasca, Ill.) supplemented with 10% fetal bovine serum and 2 mM L-glutamine. DUPRO was grown in RPMI-1640 supplemented with 10% fetal bovine serum. The human colon carcinoma cell line, HT29, and the human breast carcinoma cell line, MCF7, were obtained from the American Type Culture Collection, Rockville, Md. HT29 cells were grown in McCoy's 5A medium (Gibco, BRL, Gaithersburg, Md.) supplemented with 10% fetal bovine serum. MCF7 cells were grown in Richter's Improved Modified Eagle's medium supplemented with 10% fetal bovine serum and 2.2 g/L sodium bicarbonate. The human prostate adenocarcinoma cell lines, LNCAP, PC-3 and DU145, were gifts from Dr. George Wilding, University of Wisconsin Comprehensive Cancer Center and the Department of Medicine, and were grown in Dulbecco's Modified Eagle's medium supplemented with a 5% fetal bovine serum. The malignant glioma cell line, U251MG NCI was obtained from the brain tumor tissue bank at the University of California, San Francisco Department of Neurosurgery, and was grown in Dulbecco's Modified Eagle's medium supplemented with 10% fetal bovine serum. DUPRO, A549 and MCF7 cells were grown in 100 units/mL penicillin and 100 μg/mL streptomycin. HT29 and U251MG NCI cells were grown in 50 g/μL gentamycin. LNCAP, PC-3 and DU145 cells were maintained in 1% antibiotic antimycotic solution (Sigma, St. Louis, Mo.). All cell cultures were maintained at 37° C. in 5% CO2/95% humidified air.
(§2) MTT assay. Exponentially growing monolayer cells were plated in 96 well plates at a density of 500 cells/well and allowed to grow for 24 h. Serially diluted drug solutions were added such that the final drug concentrations in the treatment media were between 0 and 35 μM. Cells were incubated with drug at either 4 hr or 72 hr. After 4 hr and 72 hr treatment, drugs were removed, fresh media (without) drug (100 uL) was added and cells were incubated for 6 days. After six days, 25 μL of a Dulbecco's phosphate-buffered saline solution containing 5 mg/mL of MTT (Thiazolyl blue) (Sigma) was added to each well and incubated for 4 h at 37° C. Then 100 μL of lysis buffer (20% sodium dodecyl sulfate, 50% N,N-dimethylformamide and 0.8% acetic acid, pH 4.7) was added to each well and incubated for an additional 22 h. A microplate reader (E max, Molecular Devices, Sunnyvale, Calif.) set at 570 nm was used to determine the optical density. Results were plotted as a ratio of the optical density in drug treated wells to the optical density in wells treated with vehicle alone. Plotting and estimation of ID50 values were accomplished with manufacturer supplied software.

HT-29 = assay: MTT assay, HT-29 colon tumor cells; assay type: cell-based; conditions: Homo sapiens, Table 2, treatment time not stated, read-out: ID50 (μM) of different Tumor cells Colon HT-29
Description: as §1, §2

A549 = assay: MTT assay, A549 lung tumor cells; assay type: cell-based; conditions: Homo sapiens, read-out: ID50 (μM) of different Tumor cells Lung A549
Description: as §1, §2

DUPRO = assay: MTT assay, DUPRO prostate tumor cells; assay type: cell-based, human; conditions: Table 1, treatment time not stated
Description: as §1
MTT assay. Exponentially growing monolayer cells were plated in 96 well plates at a density of 500 cells/well and allowed to grow for 24 h. Serially diluted drug solutions were added such that the final drug concentrations in the treatment media were between 0 and 35 μM. […] A microplate reader (E max, Molecular Devices, Sunnyvale, Calif.) set at 570 nm was used to determine the optical density. […]

PC-3 = assay: MTT assay, PC-3 prostate tumor cells; assay type: cell-based, human
Description: as §1, §2

U251-MG = assay: MTT assay, U251-MG brain tumor cells; assay type: cell-based, human
Description: as §1, with “The malignant glioma cell line, U251MG NCI was obtained from the brain tumor tissue bank at the University of California, San Francisco Department of Neurosurgery, and was grown in Dulbecco's Modified Eagle's medium supplemented with 10% fetal bovine serum. DUPRO, A549 and MCF7 cells were grown in 100 units/mL penicillin and 100 μg/mL streptomycin. HT29 and U251MG NCI cells were grown in 50 g/μL gentamycin. LNCAP, PC-3 and DU145 cells were maintained in 1% antibiotic antimycotic solution (Sigma, St. Louis, Mo.). All cell cultures were maintained at 37° C. in 5% CO2/95% humidified air.” left out
MTT assay. […] A microplate reader (E max, Molecular Devices, Sunnyvale, Calif.) set at 570 nm was used to determine the optical density. […]

MCF7 = assay: MTT assay, MCF7 breast tumor cells; assay type: cell-based, human; conditions: Table 2, treatment time not stated
Description: as §1, §2

[1] = Table 2, treatment time not stated
[2] = Homo sapiens, PC-3, Table 1, MTT assay, treatment time not stated, read-out: ID50 (μM) of different prostate cells PC-3

Row | SMILES | IC50 (HT-29) | IC50 (A549; [1]) | IC50 (PC-3; [2]) | ID50 (μM) of different Tumor cells Breast MCF7 (MCF7) | also measured
1 | O=C1C=C(OCCCCCCO)c2ccccc2C1=O [SL-11051] | 20 µM | 17.2 µM | 17.1 µM |  | ID50 (μM) of different prostate cells DU145 (DU145): 11.16 µM; ID50 (μM) of different prostate cells DUPRO (DUPRO): 19.3 µM
2 | COC(=O)c1cc(NC(=O)CCCCOC2=CC(=O)C(=O)c3ccccc32)cn1C [SL-11052] |  | 26.9 µM |  |  | 
3 | CC1(C)CCC2=C(O1)c1ccccc1C(=O)C2=O [SL-11058] |  |  |  |  | ID50 (μM) of different Tumor cells Brain U251-MG (U251-MG; Table 4, non-quinone compounds): >31.25 µM
4 | O=C1C=C(OCCCCCNc2c3ccccc3nc3ccccc23)c2ccccc2C1=O [SL-11059, Acridine-quinone] | 10.1 µM | 15 µM | 4.3 µM |  | 
5 | Cl.O=C1C=C(OCCCCCNC2CCCCC2)c2ccccc2C1=O [SL-11060] | > 31.2 µM | > 31.2 µM |  | 17.23 µM | ID50 (μM) of different Tumor cells Brain U251-MG (U251-MG; [1]): >31.25 µM
6 | CN1CCN(c2ccc3nc(-c4ccc5nc(-c6ccc(O)cc6)[nH]c5c4)[nH]c3c2)CC1 [SL-11063] |  |  |  |  | IC50 (A549; Table 4, non-quinone compounds): > 31.2 µM; IC50 (PC-3; Homo sapiens, PC-3, Table 3, non-quinone structure, MTT assay, read-out: ID50 (μM) of different prostate cells PC-3): > 31.2 µM
7 | NCCCCCC(=O)OCCCCCCOC1=CC(=O)C(=O)c2ccccc21 [SL-11075] |  |  | 2 µM |  | 
8 | CCCCN(CC1=CC(=O)C(=O)c2ccccc21)C(C)=O [SL-11087] | 6.05 µM | 19.8 µM | 2.4 µM | 4.0 µM | 
9 | CCCCN(CC1=CC(=O)C(=O)c2ccccc21)C(=O)C(F)(F)F [SL-11088] | > 31.2 µM | > 31.2 µM | > 31.2 µM | >31.25 µM | 
10 | CCCCN(CC1=C(Br)C(=O)C(=O)c2ccccc21)C(C)=O [SL-11095] | 22.1 µM | > 31.2 µM | 4.2 µM | 20.6 µM | 
11 | O=C1C=C(CCCCCCCCc2ccc(Nc3c4ccccc4nc4ccccc34)cc2)c2ccccc2C1=O [SL-11125, Quinone-acridine] | 5.7 µM | 28 µM | 5.9 µM | 5.1 µM | ID50 (μM) of different prostate cells DU145 (DU145): 0.13 µM; ID50 (μM) of different prostate cells DUPRO (DUPRO): 7.9 µM
12 | CC(C)CC(NC(=O)C(CCCCN)NC(=O)C(CO)NC(=O)N1CCOCC1)C(=O)NC(CCC(N)=O)C(=O)NCCC(=O)OC1CC2=C(OC1(C)C)c1ccccc1C(=O)C2=O (stereo not drawn) [SL-11147, Morpholino-Ser-Lys-Leu-Gln-β-Ala-β-Lapachone] ({Morpholide-CO}-SKLQ[βAla]-X1; configuration not given here) |  |  |  |  | IC50 (DU145; 4 hr, read-out: ID50 (μM) DU145 (4 hr)): 28.1 µM; IC50 (DU145; 72 hr, read-out: ID50 (μM) DU145 (72 hr)): 2.01 µM; IC50 (PC-3; Table 1, 4 hr, read-out: ID50 (μM) PC-3 (4 hr)): 6.3 µM; IC50 (PC-3; Table 1, 72 hr, read-out: ID50 (μM) PC-3 (72 hr)): 1.24 µM

Now from value to compound, other results behind:

Row | IC50 (HT-29) | IC50 (A549; [1]) | IC50 (PC-3; [2]) | SMILES | ID50 (μM) of different Tumor cells Breast MCF7 (MCF7) | also measured
13 | 2.8 µM | 7.39 µM |  | O=C(OCCCCCCOC1=CC(=O)C(=O)c2ccccc21)OCCCCCCOC1=CC(=O)C(=O)c2ccccc21 [SL-11053] |  | 
14 | > 31.2 µM | > 31.2 µM |  | CC(C)(C)C(=O)OC1=CC(=O)C(=O)c2ccccc21 [SL-11054] |  | 
15 |  | 18.6 µM | 1.71 µM | N#Cc1ccc(OCCCCCCOC2=CC(=O)C(=O)c3ccccc32)cc1 [SL-11062] |  | 
16 |  | 9.3 µM | 0.7 µM | O=C1C=C(OCCCCCCCc2ccc(Nc3c4ccccc4nc4ccccc34)cc2)c2ccccc2C1=O [SL-11064, Quinone-anilinoacridine] |  | ID50 (μM) of different prostate cells DU145 (DU145): 0.13 µM; ID50 (μM) of different prostate cells DUPRO (DUPRO): 2.2 µM
17 |  | 2.13 µM | 1.4 µM | O=C1C=C(OCCCCCCOC2=CC(=O)c3ccccc3C2=O)c2ccccc2C1=O [SL-11065] |  | 
18 |  | > 31.2 µM | > 31.2 µM | O=C1C=C(OCCCCCCOc2ccc(OC3OC(CO)C(O)C(O)C3O)cc2)c2ccccc2C1=O (centres unmarked) [SL-11066] |  | 
19 |  | 24 µM | 1.5 µM | O=C1C=C(OCCCCCCOc2ccccc2)c2ccccc2C1=O [SL-11068] |  | 
20 |  |  | 4.6 µM | CN(C)c1cccc(OC(=O)CCCCOC2=CC(=O)C(=O)c3ccccc32)c1 [SL-11074] |  | 
21 |  |  | 11 µM | CCCCN/C=C1\C=C(O)C(=O)c2ccccc21 [SL-11089] | >31.25 µM | 
22 | 3.4 µM | 17.4 µM | 3.6 µM | CCCCN(CC1=CC(=O)C(=O)c2ccccc21)C(=O)CCC(=O)N1CCOCC1 [SL-11096] | 3.8 µM | 
